# Earlier results in US20080200512A1, “Hepatitis C virus polymerase inhibitors” (priority 2007, published 2008).
# System: HCV
# Conditions: monotherapy
smiles,measurement,value
"NC(=O)c1ncn([C@@H]2O[C@H](CO)[C@@H](O)[C@H]2O)n1 [ribavirin, 1-((2R,3R,4S,5R)-3,4-dihydroxy-5-hydroxymethyl-tetrahydro-furan-2-yl)-1H-[1,2,4]triazole-3-carboxylic acid amide]",patients in whom serum amino transferase levels are reduced to normal,40%
